Results reported in PMC6980506, “Comparative pharmacokinetics and pharmacodynamics of the advanced Retinol-Binding Protein 4 antagonist in dog and cynomolgus monkey” (PLoS ONE, 2020).
Read-outs that look alike come from different tables or passages of the source.

Key:
bisretinoid synthesis = tested on: bisretinoid synthesis; design: method as in PMID 29871924; conditions: Abca4-/- mouse model of Stargardt disease; cited from earlier work
[1] = Single dose pharmacokinetic study in cynomolgus monkey; format: in vivo
Procedure: Pharmacokinetic studies were conducted in male beagle dogs and male cynomolgus monkeys at SRI International, Menlo Park, CA. General procedures for animal care and housing were in accordance with the National Research Council (NRC) Guide for the Care and Use of Laboratory Animals (1996) and the Animal Welfare Standards incorporated in 9 CFR Part 3, 1991 and complied with guidelines set forth by the ARVO Animal Statement for the Use of Animals in Ophthalmic and Vision Research. During the course of the PK experiments, cynomolgus monkeys were individually housed in stainless steel primary enclosures in an AAALAC-accredited facility. Animals were fed a commercial monkey chow, and supplemental food was provided (fresh fruits, vegetables, seeds, and nuts). Reverse osmosis-purified drinking water was available at all times. Cynomolgus monkeys were maintained on a 12:12 hour light:dark cycle at the 64–84°F temperature and 30–70% humidity. Monkeys had access to enrichment opportunities (grooming devices, foraging devices, activity panels and mirrors) and were provided auditory stimuli and human interaction enrichment throughout the study. Blood samples were collected by venipuncture of a peripheral vein. Animals were acclimated to the squeeze back mechanism in their home cage by repeated, short periods of restraint during general husbandry procedures for at least 2 weeks prior to dosing. Animal were not removed from their cages for collection, and no anesthesia/analgesic agents were used for blood collection. […] For PK experiments, beagle dogs were individually housed in enclosed run (≥ 4 ft x 6 ft). Dogs were exposed to their daily ration of food, Harlan Teklad 2025C Certified Global 25% Protein Dog Diet. Water was provided from the public water supply (municipal tap water) ad libitum. Dogs were maintained on a 12:12 hour light:dark cycle at the 72–73°F temperature and 40–71% humidity. Every effort was made to minimize, if not eliminate, pain and suffering in all animals in this study. No restraining devices were used in blood collecting procedures. Dogs were gentle hand-held to restrain by trained technicians with the dogs foreleg extended for sample collection of blood from cephalic vein. Animals were awake during blood sample collection with no anesthesia/analgesic agents used, and positive reinforcement by the technician was provided following collection. […] All dogs were released back to the colony after the study was completed. Male beagle dogs and male cynomolgus monkey received a single i.v. dose of a test compound at 0.5 mg kg^−1 (dog) and 1 mg kg^−1 (monkey) or a single p.o. dose of a test compound of at 2 mg kg^−1 (dog) and 5 mg kg^−1 (monkey). The number of animals that was used in PK experiments is 3 per study group. Intravenous administration vehicle was 3% DMA/45% PEG300/12% ethanol/40% sterile water; p.o. vehicle was 2% Tween 80 in 0.9% saline. […] Blood samples were processed to plasma. Following protein extraction with acetonitrile, compound concentrations in plasma were measured by LC-MS/MS. The plasma drug level data were analyzed using WinNonlin software package; Model 201 (for i.v. bolus administration);was used for the analysis of i.v. data, and Model 200 (for extravascular administration) was used for the analysis of the p.o. data. Aliquots of pre-dose plasma samples, as well as aliquots of plasma PK samples, were used for the analysis of the plasmabiomarker, RBP4.
Administration to Non-Human Primates
II. MATERIALS AND METHODS

[2] = Cyno, 5.0 mg kg^−1 p.o., mean ± SD, n=3
[3] = male, cynomolgus monkey, plasma, iv, 1 mg/kg, non-human primate, iv 1.0 mg/kg, read-out: Plasma level, Individual animals
[4] = male, cynomolgus monkey, plasma, iv, 1 mg/kg, non-human primate, iv 1.0 mg/kg, read-out: Plasma level, Mean
[5] = male, cynomolgus monkey, plasma, po, 5 mg/kg, non-human primate, po 5 mg/kg, read-out: Plasma level, Individual animals
[6] = male, cynomolgus monkey, plasma, po, 5 mg/kg, non-human primate, po 5 mg/kg, read-out: Plasma level, Mean

Cc1cc(C(=O)O)nc(N2C[C@H]3C[C@@H](c4ccccc4C(F)(F)F)C[C@H]3C2)n1 [BPN-14136]
bisretinoid synthesis (bisretinoid synthesis): significantly inhibited bisretinoid synthesis | %F, bioavailability ([1]; Cyno, 5.0 mg kg^−1 p.o. vs 1.0 mg kg^−1 i.v.): 84.3 ± 24.8% | AUCinf [1, 2]: 826.6 ± 243.1 µg·h/mL | Cmax [1, 2]: 31500 ± 200 ng/mL | AUC(0-inf) ([1]; male, cynomolgus monkey, plasma, iv, 1 mg/kg, Cyno, 1.0 mg kg^−1 i.v., mean ± SD, n=3): 196 ± 42.2 µg·h/mL | Cmax ([1]; male, cynomolgus monkey, plasma, iv, 1 mg/kg, Cyno, 1.0 mg kg^−1 i.v., mean ± SD, n=3, read-out: Cmax, maximum observed concentration at first time point): 11400 ± 600 ng/mL | concentration at 0.0083 hr [1, 3]: 10900 ng/mL | concentration at 0.0083 hr [1, 4]: 11400 ng/mL | concentration at 0.25 hr ([1]; male, cynomolgus monkey, plasma, iv, 1 mg/kg, non-human primate, iv 1.0 mg/kg, 0.25 hr, read-out: Plasma level, Individual animals): 10500 ng/mL | concentration at 0.25 hr ([1]; male, cynomolgus monkey, plasma, iv, 1 mg/kg, non-human primate, iv 1.0 mg/kg, 0.25 hr, read-out: Plasma level, Mean): 10700 ng/mL | concentration at 0.5 hr [1, 3]: 9300 ng/mL | concentration at 0.5 hr [1, 4]: 9570 ng/mL | concentration at 1 hr [1, 3]: 9470 ng/mL | concentration at 1 hr [1, 4]: 9060 ng/mL | concentration at 2 hr [1, 3]: 8910 ng/mL | concentration at 2 hr [1, 4]: 8080 ng/mL | concentration at 4 hr [1, 3]: 7450 ng/mL | concentration at 4 hr [1, 4]: 7080 ng/mL | concentration at 8 hr [1, 3]: 6160 ng/mL | concentration at 8 hr [1, 4]: 5890 ng/mL | concentration at 12 hr [1, 3]: 4470 ng/mL | concentration at 12 hr [1, 4]: 4780 ng/mL | concentration at 24 hr [1, 3]: 2840 ng/mL | concentration at 24 hr [1, 4]: 2930 ng/mL | concentration at 36 hr ([1]; male, cynomolgus monkey, plasma, iv, 1 mg/kg, non-human primate, iv 1.0 mg/kg, 36 hr, read-out: Plasma level, Mean): 1670 ng/mL | concentration at 48 hr ([1]; male, cynomolgus monkey, plasma, iv, 1 mg/kg, non-human primate, iv 1.0 mg/kg, 48 hr, read-out: Plasma level, Mean): 1050 ng/mL | AUC(0-t) ([1]; male, cynomolgus monkey, plasma, iv, Cyno, 1.0 mg kg^−1 i.v., mean ± SD, n=3): 171 ± 27 µg·h/mL | clearance ([1]; male, cynomolgus monkey, plasma, iv, Cyno, 1.0 mg kg^−1 i.v., mean ± SD, n=3, read-out: CL, total body clearance (converted)): 5.25 mL/h/kg | half-life ([1]; male, cynomolgus monkey, plasma, iv, Cyno, 1.0 mg kg^−1 i.v., mean ± SD, n=3, read-out: T1/2, apparent terminal half-life (converted)): 15.6 ± 3.3 h | Vd ([1]; male, cynomolgus monkey, plasma, iv, Cyno, 1.0 mg kg^−1 i.v., mean ± SD, n=3, read-out: Vss, volume of distribution at steady state): 0.113 ± 0.004 L/kg | bioavailability ([1]; male, cynomolgus monkey, plasma, oral, 5 mg kg^−1, Cyno, 5.0 mg kg^−1 p.o. vs 1.0 mg kg^−1 i.v., read-out: %F, bioavailability): ~84% | AUC(0-inf) ([1]; male, cynomolgus monkey, plasma, po, 5 mg/kg, Cyno, 5.0 mg kg^−1 p.o., mean ± SD, n=3): 676 µg·h/mL | Cmax ([1]; male, cynomolgus monkey, plasma, po, 5 mg/kg, Cyno, 5.0 mg kg^−1 p.o., mean ± SD, n=3, read-out: Cmax): 31400 ng/mL | concentration at 0.25 hr ([1]; male, cynomolgus monkey, plasma, po, 5 mg/kg, non-human primate, po 5 mg/kg, 0.25 hr, read-out: Plasma level, Individual animals): 9720 ng/mL | concentration at 0.25 h ([1]; male, cynomolgus monkey, plasma, po, 5 mg/kg, non-human primate, po 5 mg/kg, 0.25 hr, read-out: Plasma level, Mean): 11100 ng/mL | concentration at 0.5 h [1, 5]: 28100 ng/mL | concentration at 0.5 h [1, 6]: 22200 ng/mL | concentration at 1 hr [1, 5]: 24600 ng/mL | concentration at 1 hr [1, 6]: 29800 ng/mL | concentration at 2 hr [1, 5]: 32400 ng/mL | concentration at 2 hr [1, 6]: 31200 ng/mL
